# Reference: PubChem BioAssay AID2060885 (Molecular Pharmacology Branch, DTP, NCI, 2025)
# System: NCI-H23 complex spheroids with HUVEC/MSC, viability
# Assay: Anticancer human tumor NCI-H23 cell line growth inhibition [RAS];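 note: spheroids exposed to compound for 7 days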;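 for viability, T/C: 100% = DMSO vehicle control viability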
# Conditions: for IC50: curve of first compound; for viability, T/C: stronger effect = lower value
# In short: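 Tumour cells grown as complex spheroids with HUVEC endothelial cells and mesenchymal stem cells, treated with RAS pathway inhibitor combinations. Each agent spans half-log steps from near clinical Cmax, or 10 microM where Cmax is unknown.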
smiles,measurement,setting,value
C=CC(=O)N1CCN(c2nc(OCC3CCCN3C)nc3c(F)c(-c4nc(N)cc(C)c4C(F)(F)F)c(Cl)cc23)C(C)C1 (configuration not stated) + CCn1c(-c2cc(N3CCN(C)CC3)cnc2C(C)OC)c2c3cc(ccc31)-c1csc(n1)CC(NC(=O)C1CC1C)C(=O)N1CCCC(N1)C(=O)OCC(C)(C)C2,IC50,second compound 0.000949 µM,< 3.16 nM
same,IC50,second compound 0.003 µM,< 3.16 nM
same,IC50,second compound 0.00949 µM,< 3.16 nM
same,IC50,second compound 0.03 µM,< 3.16 nM
same,IC50,second compound 0.0949 µM,< 3.16 nM
same,IC50,second compound 0.3 µM,< 3.16 nM
same,"viability, T/C","second compound 0.000949 µM, first compound 0.00316 µM",32.5%
same,"viability, T/C","second compound 0.000949 µM, first compound 0.01 µM",33%
same,"viability, T/C","second compound 0.000949 µM, first compound 0.0316 µM",22.8%
same,"viability, T/C","second compound 0.000949 µM, first compound 0.1 µM",30.2%
same,"viability, T/C","second compound 0.000949 µM, first compound 0.316 µM",28.8%
same,"viability, T/C","second compound 0.000949 µM, first compound 1 µM",23.3%
same,"viability, T/C","second compound 0.003 µM, first compound 0.00316 µM",32.6%
same,"viability, T/C","second compound 0.003 µM, first compound 0.01 µM",26.3%
same,"viability, T/C","second compound 0.003 µM, first compound 0.0316 µM",23.6%
same,"viability, T/C","second compound 0.003 µM, first compound 0.1 µM",29.8%
same,"viability, T/C","second compound 0.003 µM, first compound 0.316 µM",29.5%
same,"viability, T/C","second compound 0.003 µM, first compound 1 µM",27.4%
same,"viability, T/C","second compound 0.00949 µM, first compound 0.00316 µM",31%
same,"viability, T/C","second compound 0.00949 µM, first compound 0.01 µM",25%
same,"viability, T/C","second compound 0.00949 µM, first compound 0.0316 µM",28.1%
same,"viability, T/C","second compound 0.00949 µM, first compound 0.1 µM",28.5%
same,"viability, T/C","second compound 0.00949 µM, first compound 0.316 µM",25.9%
same,"viability, T/C","second compound 0.00949 µM, first compound 1 µM",26.9%
same,"viability, T/C","second compound 0.03 µM, first compound 0.00316 µM",26.4%
same,"viability, T/C","second compound 0.03 µM, first compound 0.01 µM",23%
same,"viability, T/C","second compound 0.03 µM, first compound 0.0316 µM",25%
same,"viability, T/C","second compound 0.03 µM, first compound 0.1 µM",21%
same,"viability, T/C","second compound 0.03 µM, first compound 0.316 µM",16.9%
same,"viability, T/C","second compound 0.03 µM, first compound 1 µM",21.8%
same,"viability, T/C","second compound 0.0949 µM, first compound 0.00316 µM",18.4%
same,"viability, T/C","second compound 0.0949 µM, first compound 0.01 µM",16.8%
same,"viability, T/C","second compound 0.0949 µM, first compound 0.0316 µM",16%
same,"viability, T/C","second compound 0.0949 µM, first compound 0.1 µM",14.4%
same,"viability, T/C","second compound 0.0949 µM, first compound 0.316 µM",12.2%
same,"viability, T/C","second compound 0.0949 µM, first compound 1 µM",13.8%
same,"viability, T/C","second compound 0.3 µM, first compound 0.00316 µM",17.2%
same,"viability, T/C","second compound 0.3 µM, first compound 0.01 µM",13.7%
same,"viability, T/C","second compound 0.3 µM, first compound 0.0316 µM",14%
same,"viability, T/C","second compound 0.3 µM, first compound 0.1 µM",11.8%
same,"viability, T/C","second compound 0.3 µM, first compound 0.316 µM",12.9%
same,"viability, T/C","second compound 0.3 µM, first compound 1 µM",11.1%
